Entries after “also recorded” stand apart in the source; their conditions may differ.
Tests used:
human dermal fibroblasts [1] = assay: Generation of pro-inflammatory cytokines by fibroblasts (multiplex ELISA); assay type: cell-based; settings: KBM 1.5 mM calcium, two days, culture fluids
Experimental: Fibroblasts were grown in KBM supplemented with 1.5 mM calcium (i.e., as in the fibroblast cytotoxicity assay) for two days. Culture fluids obtained at the end of the incubation period were assessed for several pro-inflammatory cytokines using a multiplex (ELISA-type) assay. Values shown are means and ranges based on duplicate samples in a single experiment. The experiment was repeated two times with similar results.
It is believed that the pro-inflammatory cytokines are “drivers” of the retinoid-induced skin irritation response. […] In this experiment, fibroblasts were cultured for two days in KBM supplemented with 1.5 mM calcium (i.e., as in the cytotoxicity assay). Culture fluids were collected after two days of incubation and subjected to a multiplex enzyme-linked immunosorbant assay (ELISA) for the following cytokines: TNF-α, IL-1β, IL-6, IL-8, MCP-1 and CXCL-1.

human dermal fibroblasts [2] = assay: Retinoid-induced fibroblast survival under low-calcium conditions; assay type: cell-based; settings: KBM 0.1 mM calcium, three days, 0.1 to 5 μg/mL
Experimental: Human dermal fibroblasts are isolated from skin biopsies as described previously and grown in monolayer culture using DMEM supplemented with 10% fetal bovine serum as culture medium (see, e.g., Varani J, et al., J Clin Invest. 1994; 94; Varani J, et al., J. Invest. Dermatol. 94:717-723, 1990). Growth is at 37° C. in a humidified atmosphere containing 5% CO2 and 95% air. For experimental studies, cells are plated at 5×10^4 cells per well in wells of a 24-well culture dish in the same culture medium. One day later, cells are washed and the DMEM culture medium is replaced with Keratinocyte Basal Medium (KBM).
In this assay, low-passage human dermal fibroblasts are grown for three days in Keratinocyte Basal Medium (KBM) at a calcium concentration (0.1 mM) that is too low to support survival. […] How retinoids act to prevent fibroblast lysis is not fully understood, but part of the mechanism involves modulation of calcium transit across the cell membrane in the presence of the active retinoids (see, e.g., Varani J, et al., Am. J. Path. 136:1275-1281, 1990; Varani K, et al., Am J. Pathol. 147:718-729, 1995; Varani J, et al., Amer. J. Pathol. 148: 1307-1312, 1996).

[3] = test system: serum pro-inflammatory cytokines; settings: mouse, in vivo
Description: Each of the 4 experimental retinoids was made up in DMSO as 0.1% and 0.3% solutions. The material was applied to the treatment area (2 cm^2 area) on a dot marked area on the inter-scapular back) once daily for 7 consecutive days or for 21 consecutive days. The test agent was gently rubbed into the test site after application. As a control, Tretinoin-0.1% was used. […] This is a commonly-prescribed anti-acne medicine. A set amount of the test article, DMSO, DMSO plus test drug, or Tretinoin cream (35 mg) was delivered using a Gilson MICROMAN fully adjustable positive placement pipette.
Serum was obtained from all mice at the end of the study and evaluated for levels of pro-inflammatory cytokines. For this, the same multiplex ELISA used with human samples was employed except that mouse-recognizing antibodies replaced antibodies used to detect the human counterparts.

rhino mouse skin = assay: Rhino mouse topical treatment: skin histology (horn-filled utriculi, epidermal thickness, inflammation); assay type: in vivo; settings: topical, concentration not given; for inflammatory response / inflammatory cell infiltrate in histological sections (in words): 21 days
Description: FIGS. 12A-C: Efficacy of retinoids at normalizing structure of rhino mouse skin after topical treatment for 21 days.
FIGS. 13A-C: Dose related effect of Example 2 on rhino mouse skin.
The rhinomouse model is an industry-standard pre-clinical model for evaluation of retinoids for anti-acne activity. The mice can be treated topically over a course of days with the desired compound (either formulated or in liquid solvent). During the course of treatment, the animals can be evaluated grossly for skin irritation. At the end of the treatment phase, the animals are euthanized. Skin from treated sites can be evaluated for efficacy—reduction in the number of horn-filled utriculi—and for histological evidence of inflammation.
As a control, Tretinoin-0.1% was used. […] This is a commonly-prescribed anti-acne medicine.
One day after the last treatment, animals were euthanized. The animals were injected with 7 ml 10% buffered formalin after euthanasia. 15 minutes later the treated area on the back of the mouse was removed and cut into 8 pieces. Every other piece was taken, so four pieces of skin were mounted in one cassette and fixed for histology. An extra piece of skin from a non-treated area was also evaluated.
Hematoxylin and eosin stained sections were evaluated microscopically for epidermal thickness with measurements made in the inter-follicular regions at 4 representative sites per tissue strip.
The number of horn-filled utriculi was determined by direct counting in the entire section of skin. Each of the four sections per biopsy was used for determining the number of utriculi. Section lengths were measured as a way to normalize findings. Typically, the section of skin varied from 16-20 mm.
Slides were examined microscopically and inflammation was scored on a 0 to 4+ basis. A score of zero indicated no inflammation while increasing collection of inflammatory cells was identified with increasing score. Slides were also evaluated to determine if inflammation was confined to the dermis or whether there was epidermal inflammation. Dermal inflammation was assessed to determine if inflammatory cells were scattered throughout the dermis or whether small abscesses were also present. Finally, the inflammatory lesions were evaluated to determine whether they consisted of primarily mononuclear cells, granulocytic cells or both. A similar scale has been used previously in the assessment of skin irritation.
At the end of the in-life portion of the study, mice were euthanized by CO2 overdose. Hematoxylin and eosin-stained histological sections from each mouse in the control, ATRA-treated and Compound 2-treated groups were evaluated with regard to the number of horn-filled utriculi, epidermal thickness, and inflammation. Briefly, the epidermis of control mice consisted of a thin epidermis with large numbers of horn-filled utriculi (98+10 per 20 mm of epidermal linear length). […] Both the ATRA-treated mouse (top right panel) the Compound 2 treated skin (bottom panel) show both much thickened […] and disappearance of utriculi. […] There were large numbers of inflammatory cells in the dermis. Microabscesses could be seen in places, and migration of inflammatory cells into the epidermis was also evident. The infiltrate consisted of both mononuclear cells and granulocytes. […] The three other experimental retinoids were also examined along with Compound 2. […] In FIG. 13 it can be seen that during the dosing period 0.1% of Compound 2 led to skin thickening, but incomplete resolution of the utricali, whereas at 0.3% the utricali were more fully resolved.

[4] = test system: systemic cytokine release; settings: intraperitoneal dosing; cited from earlier work
skin wounds = assay: Wound healing in rats with steroid-induced atrophic skin; assay type: in vivo, rat
Description: FIGS. 15A-C: Results from a study in rats in which the skin was made atrophic by topical steroid treatment and then wounded. […] In the control animal (15CL), there was incomplete re-epithelialization over the wound and little collagen deposition in the dermis. […] The lack of irritation/inflammation is expected in the control animal but is unusual for a retinoid-treated animal. The data shown here was consistent over n=5 animals per group.
Given the lack of irritation associated with MDI 301, experiments were conducted reasoning that this retinoid might work in the acute wound setting. Essentially, a group of rats were treated with a potent steroid to induce skin atrophy followed by a wounding of the skin. Following this, rats were treated with vehicle alone or with MDI 301. […] It should be noted that in this study ATRA cannot be used, as its irritant properties exacerbate the original injury.

[5] = test system: human skin in organ culture; settings: cited from earlier work

SMILES	induction of pro-inflammatory cytokines (TNF-α, IL-1β, IL-6, IL-8, MCP-1, CXCL-1) (human dermal fibroblasts [1])	protection of fibroblasts from lysis (percentage of initially present cells still viable) (human dermal fibroblasts [2])	IL-1β serum level [3]	TNF-α serum level [3]	inflammatory response / inflammatory cell infiltrate in histological sections (in words) (rhino mouse skin)	number of utriculi compared to control (in words) (rhino mouse skin)	systemic cytokine release [4]	histology of the wound site (skin wounds; 1% cream, after 13 days)	skin irritation and inflammation at the wound site (skin wounds; 1% cream, after 13 days)	healing of skin wounds compared to control rats (skin wounds; 1.0% cream, ~100 mgs daily to wound periphery, 13 days)	effect on collagen-degrading enzyme MMP-1 (collagenase 1) ([5]; human skin organ culture model)	procollagen I production ([5]; human skin organ culture model)	up-regulation of the pro-inflammatory cytokines that underlie retinoid-induced skin irritation ([5]; past studies)
CC1=C(/C=C/C(C)=C\C=C\C(C)=C\C(=O)N2CCCC(=O)C2)C(C)(C)CCC1 [Example 3, 1-((2E,4E 6Z,8E)-3,7-dimethyl-9-(2,6,6-trimethylcyclohex-1-en-1-yl)nona-2,4,6,8-tetranonyl)piperidin-3-one]	much lower levels of the various cytokines than did ATRA	capable of protecting fibroblasts from lysis under low-calcium conditions	low	low	did not produce an inflammatory response	reduced the number of utriculi as compared to control							
CC1=C(/C=C/C(C)=C\C=C\C(C)=C\C(=O)N(C)CC(=O)C2(C)CC2)C(C)(C)CCC1 [Example 4, (2E,4E,6Z,8E)-N,3,7-trimethyl—N-(2-(1-methylcyclopropyl)-2-oxoethyl)-9-(2,6,6-trimethylcyclohex-1-en-1-yl)nona-2,4,6,8-tetraenamide]	much lower levels of the various cytokines than did ATRA; also recorded: comparable to Compound 1	capable of protecting fibroblasts from lysis under low-calcium conditions	low	low	did not produce an inflammatory response	reduced the number of utriculi as compared to control							
CC1=C(/C=C/C(C)=C\C=C\C(C)=C\C(=O)OCC(=O)C(C)(C)C)C(C)(C)CCC1 [MDI 301]							did not elicit systemic cytokine release	confluent layer of epithelial keratinocytes over the wound site and a pronounced zone of fibroblast proliferation with new collagen formation under the epithelial layer	lack of skin irritation (15BR) and lack of inflammation (15CR)	healed more rapidly	inhibited the major collagen-degrading enzyme (MMP-1, collagenase 1)	induced procollagen I production	did not up-regulate the pro-inflammatory cytokines

Reference: patent US11148998B2, “Dimethyl-nonatetraenyl-trimethyl-cyclohexyl compounds and uses thereof” (The Regents of the University of Michigan, priority 2017, dated 2021)
